Entries after “also recorded” stand apart in the source; their conditions may differ. Like-named read-outs stand apart in the source and are kept apart here.
What was measured:
[1] = system: deoxyhypusine synthase from HTC cells; settings: 20 μM inhibitor; 1 μM spermidine; precursor from DFMO-treated HTC cells; cited from earlier work
[2] = target: T1, deoxyhypusine synthase from rat testis (Rattus norvegicus, UniProt Q6AY53); experiment: Inhibition of deoxyhypusine synthase ([3H]deoxyhypusine formation from [3H]spermidine), IC50/Ki; assay type: biochemical; settings: for relative inhibitory potency (in words): comparison with parent amine, bisguanylated counterpart or another inhibitor; for Ki: competitive vs spermidine
T1 construct: as catalyzed by deoxyhypusine synthase from rat testis; from tissue; host or cells: rat testis
T1 sequence (Q6AY53 1-369): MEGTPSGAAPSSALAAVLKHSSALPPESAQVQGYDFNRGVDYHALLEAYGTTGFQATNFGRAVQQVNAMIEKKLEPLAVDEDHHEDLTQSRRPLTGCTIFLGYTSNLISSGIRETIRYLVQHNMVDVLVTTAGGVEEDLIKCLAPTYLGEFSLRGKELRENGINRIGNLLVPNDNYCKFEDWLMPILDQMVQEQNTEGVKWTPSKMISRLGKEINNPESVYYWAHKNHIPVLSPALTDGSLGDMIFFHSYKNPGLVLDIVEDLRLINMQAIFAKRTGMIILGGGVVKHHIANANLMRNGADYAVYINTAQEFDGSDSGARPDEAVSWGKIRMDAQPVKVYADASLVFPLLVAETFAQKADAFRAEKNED
Experimental: The enzyme assay was performed as previously described (see Wolff et al. (1990) J. Biol. Chem. 265:4793-4799; and Park et al. (1991) J. Biol. Chem. 266:7988-7994). A typical assay mixture included 0.2M glycine, 1 mM dithiothreitol, 0.5 mM NAD^+, 2.4 micromolar (μM) [1,8-^3 H] spermidine, 1 μM ec-eIF-5A(Lys), 25 micrograms (μg) bovine serum albumin, and 3-15 units of enzyme in a total volume of 20 microliters (μl). Incubations were carried out at pH 9.3 and 37° C. for 1 hour. […] Percent inhibition was plotted versus log inhibitor concentration in order to obtain graphic estimates of IC50 values, i.e., the concentrations inhibiting [^3 H]deoxyhypusine production by 50%. The IC50 values reported in the tables were calculated by fitting the data points to equation 1 where x=% inhibition and I is the inhibitor concentration. [formula] The nature of the inhibition was determined by plotting reciprocal velocities of [^3 H]deoxyhypusine production against reciprocals of [^3 H]spermidine concentrations at a constant fixed level of ec-eIF-5A(Lys) (1 μM) and at set inhibitor concentrations. […] Estimates of Ki values were made by fitting the data to equation 2; wherein v is the velocity of the reaction, V is the maximum velocity, S is the substrate concentration, Km is Michaeli's constant, Ki is the inhibition constant, and I is the inhibitor concentration. [formula] All fits were performed by means of an interactive curve-fitting program, MLAB, developed and modified at the National Institutes of Health to run on an IBM personal computer.

deoxyhypusine synthase = target: T2, deoxyhypusine synthase (Rattus norvegicus, UniProt Q6AY53); settings: earlier publications, cited from earlier work
T2 construct: full-length homotetramer; substrate was human eIF-5A precursor expressed in E. coli
T2 sequence (Q6AY53 1-369): T1 sequence (Q6AY53 1-369)

[3] = cited from earlier work
[4] = pH 9.3, 37° C., 1 hour, 2.4 μM [3H]spermidine

In the case of `NCCCNCCC(F)CN` (centres unmarked) [7-monofluorospermidine], the “inhibition of deoxyhypusine synthase” value [1] is listed as 35%.

For `NCCCN` [Compound 2, 1,3-diaminopropane], the “inhibition of deoxyhypusine synthase (in words)” value (shortened to “inhibition … (in words)”) ([2]; pH 9.3, 37° C., 1 hour, 2.4 μM [3H]spermidine, listed as 1,3-diaminopropane) was “inhibit”, the “inhibition … (in words)” value ([2]; pH 9.3, 37° C., 1 hour, 2.4 μM [3H]spermidine, listed as compound 2) was “exerts product inhibition; also recorded: inhibit the enzyme” and the “type of inhibition (kinetics)” value ([2]; varied [3H]spermidine, ec-eIF-5A(Lys) fixed at 1 μM) was “competitive”.

For `NCCCCN` [Compound 3, putrescine], the “inhibition … (in words)” value ([2]; pH 9.3) was “inhibit the enzyme”.

For `NCCCCCN` [Compound 4, cadaverine], the “inhibition … (in words)” value [2, 4] was “does not”.

With `NCCCCCCN` [Compound 5, 1,6-diaminohexane] the “inhibition … (in words)” value [2, 4] was “displays inhibition”.

For `NCCCCCCCN` [Compound 6, 1,7-diaminoheptane], the “inhibition … (in words)” value [2, 4] was “strong inhibition”.

With `NCCCCCCCCN` [Compound 7, 1,8-diaminooctane] the “inhibition … (in words)” value [2, 4] was “strong inhibition”.

For `NCCCNCCCN` [Compound 9, caldine], the “inhibition … (in words)” value ([2]; pH 9.3) is listed as “some degree of inhibition”, the “substrate or cofactor function for deoxyhypusine synthase” value (shortened to “substrate or cofactor function”) (deoxyhypusine synthase; listed as caldine) is listed as “no detectable substrate property” and the “substrate or cofactor function” value (deoxyhypusine synthase; listed as compound 9) is listed as “fails to serve as a substrate”.

In the case of `NCCCCNCCCN` [Compound 10, spermidine], the “pKa of N1-amino group” value ([3]; N1-amino group) is listed as 9.94 and the “pKa of N8-amino group” value ([3]; N8-amino group) is listed as 10.81.

In the case of `NCCCCCNCCCN` [Compound 11, N-(3-aminopropyl)cadaverine], the “inhibition … (in words)” value [2, 4] is given as “some degree of inhibition”, the “substrate or cofactor function” value (deoxyhypusine synthase; listed as N-(3-aminopropyl)cadaverine) is given as “function as a substrate for deoxyhypusine synthase, albeit a poor one; also recorded: acts as a substrate” and the “substrate or cofactor function” value (deoxyhypusine synthase; listed as compound 11) is given as “functions as a substrate, albeit a poor one”.

In the case of `NCCCNCCCCNCCCN` [Compound 12, spermine], the “inhibition … (in words)” value ([2]; pH 9.3) is reported as “failure”.

For `CCCCCCCCN` [Compound 13], the “inhibition … (in words)” value [2, 4] was “does not appear to interact to any significant extent”.

With `c1ccc(CNCCCCCCCCNCc2ccccc2)cc1` [Compound 25, N,N'-bis-benzyl-1,8-diaminooctane] the “inhibition … (in words)” value [2, 4] was “loss in binding”.

With `CN(CCCN)CCCN` [Compound 30, N^4 -methylcaldine] the “inhibition … (in words)” value [2, 4] was “devoid of inhibitory activity; also recorded: do not interact with the active site of the enzyme”.

With `NCCCN1CCC(CN)CC1` [Compound 31, 1-(3-Aminopropyl)-4-aminomethylpiperidine] the “inhibition … (in words)” value [2, 4] was “failure to inhibit the enzyme”.

With `NCCCN[C@H]1CC[C@@H](N)CC1` [Compound 32, N-(3-aminopropyl)-1,4-diaminocyclohexane] the “inhibition … (in words)” value [2, 4] was “failure to inhibit the enzyme”.

In the case of `NCCCN[C@H]1CC[C@H](N)CC1` [Compound 33, N-(3-aminopropyl)-1,4-diaminocyclohexane], the “inhibition … (in words)” value [2, 4] is reported as “failure to inhibit the enzyme”.

With `CC(C)(CCCN)NCCCN` [Compound 34, 5,5-dimethylspermidine] the “inhibition … (in words)” value [2, 4] was “abolished inhibition; also recorded: failure to inhibit the enzyme”.

With `CC(N)CCNCCCCN` (centres unmarked) [Compound 35, 1-Methyl spermidine] the “inhibition … (in words)” value [2, 4] was “Some degree of inhibition”.

For `NCCCNCCCON` [Compound 39, N-(3-aminooxypropyl)-1,3-diaminopropane], the “inhibition … (in words)” value [2, 4] is listed as “without effect; also recorded: does not function as an inhibitor” and the “pKa of aminooxy group” value ([3]; aminooxy group) is listed as 4.5-5.0.

With `N=C(N)NCCCCCCNC(=N)N` [Compound 41, N^1,N^6-bisguanyl-1,6-diaminohexane] the “relative inhibitory potency (in words)” value [2] was “inhibition not widely different from its parent amine” and the “inhibition … (in words)” value [2, 4] was “acted as inhibitors of deoxyhypusine synthase”.

In the case of `N=C(N)NCCCCCCCNC(=N)N` [Compound 42, N^1,N^7-bisguanyl-1,7-diaminoheptane], the “relative inhibitory potency (in words)” value [2] is reported as “inhibition not widely different from its parent amine”, the Ki [2] is reported as 1200 nM and the “inhibition … (in words)” value [2, 4] is reported as “acted as inhibitors of deoxyhypusine synthase”.

In the case of `N=C(N)NCCCCCCCCNC(=N)N` [Compound 43, N^1,N^8-bisguanyl-1,8-diaminooctane], the “relative inhibitory potency (in words)” value [2] is reported as “somewhat stronger an inhibitor than guazatine (compound 40), showed no better inhibition than the parent diamine, 1,8-diaminooctane (compound 7); also recorded: inhibition not widely different from its parent amine” and the “inhibition … (in words)” value [2, 4] is reported as “acted as inhibitors of deoxyhypusine synthase”.

With `N=C(N)NCCCNC(=N)N` [Compound 44, N^1,N^3-bisguanyl-1,3-diaminopropane] the “inhibition … (in words)” value [2, 4] was “without inhibitory property; also recorded: no inhibition was detected”.

In the case of `N=C(N)NCCCNCCCNC(=N)N` [Compound 45, N^1,N^7 -bisguanyl caldine], the “relative inhibitory potency (in words)” value [2] is reported as “inhibition not widely different from its parent amine”, the “inhibition … (in words)” value [2, 4] is reported as “somewhat reduced inhibition” and the “increase in IC50 by bisguanylation” value ([2]; vs parent caldine (45 vs 9)) is reported as 5 fold.

In the case of `N=C(N)NCCCN` [Compound 46, N^1-guanyl-1,3-diaminopropane], the “inhibition … (in words)” value [2, 4] is reported as “without inhibitory property; also recorded: no inhibition was detected”.

With `N=C(N)NCCCCN` [Compound 47, agmatine] the “inhibition … (in words)” value [2, 4] was “moderate degree of inhibition; also recorded: mild degree of inhibition”.

With `N=C(N)NCCCNCCCN` [Compound 48, N^1 -guanylcaldine] the “relative inhibitory potency (in words)” value [2] was “far exceeding the parent amines, as well as their bisguanylated counterparts, in inhibitory potency; also recorded: uniformly more efficient inhibition” and the “inhibition … (in words)” value [2, 4] was “excellent inhibitors”.

With `N=C(N)NCCCCCCCN` [Compound 49, N^1-guanyl-1,7-diaminoheptane] the “relative inhibitory potency (in words)” value [2] was “far exceeding the parent amines, as well as their bisguanylated counterparts, in inhibitory potency; also recorded: strongest inhibition of the compounds tested; also recorded: uniformly more efficient inhibition”, the Ki [2] was 9.7 nM and the “inhibition … (in words)” value [2, 4] was “excellent inhibitors”. For the same compound, the “Ki, fold less than the apparent Km for spermidine” value ([2]; vs apparent Km for spermidine (4.5±0.7 μM)) was “about 450 fold”.

With `N=C(N)NCCCCCCCCN` [Compound 50, N^1-guanyl-1,8-diaminooctane] the “relative inhibitory potency (in words)” value [2] was “far exceeding the parent amines, as well as their bisguanylated counterparts, in inhibitory potency; also recorded: uniformly more efficient inhibition” and the “inhibition … (in words)” value [2, 4] was “excellent inhibitors”.

In the case of `NC(=O)C1=CN([C@@H]2O[C@H](COP(=O)(O)OP(=O)(O)OC[C@H]3O[C@@H](n4cnc5c(N)ncnc54)[C@H](O)[C@@H]3O)[C@@H](O)[C@H]2O)C=CC1` [NADH], the “substrate or cofactor function” value (deoxyhypusine synthase) is given as “negligible”.

For `NC(=O)c1ccc[n+]([C@@H]2O[C@H](COP(=O)([O-])OP(=O)(O)OC[C@H]3O[C@@H](n4cnc5c(N)ncnc54)[C@H](OP(=O)(O)O)[C@@H]3O)[C@@H](O)[C@H]2O)c1` [NADP^+], the “substrate or cofactor function” value (deoxyhypusine synthase) is listed as “negligible”.

In the case of `NCCCC[C@H](N)C(=O)O` [free lysine, lysine], the “substrate or cofactor function” value (deoxyhypusine synthase) is given as “Neither free lysine nor synthetic 9- or 16-member peptides modeled on the amino acid sequence encompassing the lysine residue in eIF-5A precursors that undergoes modification to hypusine, function as substrates”.

For “altered eIF-5A precursor protein, in which Lys^50 is replaced by Arg: altered eIF-5A precursor protein, in which Lys^50 is replaced by Arg”, the “substrate or cofactor function” value (deoxyhypusine synthase) is listed as “is not”.

Source: patent US5344846A, “Compositions and methods for inhibiting deoxyhypusine synthase and the growth of cells” (The United States of America as represented by the …, priority 1992, dated 1994)
